Data taken from paper PMC6934184, “Selective DNA-PKcs inhibition extends the therapeutic index of localized radiotherapy and chemotherapy” (The Journal of Clinical Investigation, 2019).

Target: T1, AMPK A2/B1/G1 (Homo sapiens, UniProt P54646)
T1 construct: purchased Thermo Fisher Scientific (Life Technologies) SelectScreen
Experiment: SelectScreen Z'LYTE
Format: biochemical
How it was run: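 SelectScreen broad panel; activity (Z'LYTE, Adapta) plus binding formats. ATP: Km app for CSF1R Z'LYTE; 10 for CAMK1 Adapta. Readout = % per kinase.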

T1 sequence (P54646 whole entry): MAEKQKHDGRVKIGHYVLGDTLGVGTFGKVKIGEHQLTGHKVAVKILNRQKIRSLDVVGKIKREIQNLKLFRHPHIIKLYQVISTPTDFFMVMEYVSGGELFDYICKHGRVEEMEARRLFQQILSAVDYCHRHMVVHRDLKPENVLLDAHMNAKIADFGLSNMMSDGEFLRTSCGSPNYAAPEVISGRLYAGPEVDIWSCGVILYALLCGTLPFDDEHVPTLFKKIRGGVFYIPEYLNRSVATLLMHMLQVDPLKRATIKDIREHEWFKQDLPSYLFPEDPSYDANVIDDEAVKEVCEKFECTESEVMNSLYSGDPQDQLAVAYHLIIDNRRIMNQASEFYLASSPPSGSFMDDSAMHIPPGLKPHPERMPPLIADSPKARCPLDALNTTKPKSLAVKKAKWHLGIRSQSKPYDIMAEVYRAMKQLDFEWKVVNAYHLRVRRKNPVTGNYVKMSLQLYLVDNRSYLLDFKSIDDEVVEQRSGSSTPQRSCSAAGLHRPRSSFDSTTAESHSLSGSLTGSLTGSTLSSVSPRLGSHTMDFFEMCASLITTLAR
T1 sequence (Q9Y478 whole entry partner): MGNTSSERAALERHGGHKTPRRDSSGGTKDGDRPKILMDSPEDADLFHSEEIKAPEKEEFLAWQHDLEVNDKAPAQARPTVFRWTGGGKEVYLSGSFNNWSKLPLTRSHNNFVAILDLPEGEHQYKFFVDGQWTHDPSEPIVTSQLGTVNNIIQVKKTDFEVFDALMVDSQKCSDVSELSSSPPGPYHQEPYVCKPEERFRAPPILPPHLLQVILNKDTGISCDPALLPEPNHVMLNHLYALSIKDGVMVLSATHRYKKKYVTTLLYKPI
T1 sequence (P54619 whole entry partner): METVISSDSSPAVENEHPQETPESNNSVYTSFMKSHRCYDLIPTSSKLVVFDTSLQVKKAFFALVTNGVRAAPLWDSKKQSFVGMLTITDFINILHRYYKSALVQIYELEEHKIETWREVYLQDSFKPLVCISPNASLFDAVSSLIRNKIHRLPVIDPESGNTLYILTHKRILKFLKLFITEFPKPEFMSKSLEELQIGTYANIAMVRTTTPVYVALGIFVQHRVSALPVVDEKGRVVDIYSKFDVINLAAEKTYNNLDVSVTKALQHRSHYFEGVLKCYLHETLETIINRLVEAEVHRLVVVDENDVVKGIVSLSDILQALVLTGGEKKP

CN(C(=O)CN1CCOCC1)c1ccc2sc3c(-c4cccc5c(=O)cc(N6CC7CCC(C6)O7)oc45)cccc3c2c1 [NU5455]
inhibition at 1 µM: 2.6%
